Key:
sanitary pests = assay: Efficacy comparison of stereoisomers in controlling sanitary pests (experiments not detailed); settings: for efficacy of isomer relative to other isomers: qualitative statement from applicant's study
Mosquito [1] = assay: Volatile agent on filter paper hung on the door of a room, mosquito invasion; format: in vivo; settings: 1 mg on filter paper 20 cm×50 cm, volatilised at room temperature, hung on edge of door
Procedure: Compound 6 (2,3,5,6-tetrafluoro-4-methoxymethylbenzyl-1R, trans-(Z)-3-(3,3,3-trifluoro-1-prop ylene)-2,2-dimethylcyclopropane carboxylate, 1 mg) was dissolved in acetone (20 ml) to obtain a solution. The resulting solution was distributed on a filter paper (20 cm×50 cm) and air-dried to remove the acetone to obtain a volatile agent.

[2] = system: female Culex pipiens pallens; assay: Efficacy of pesticide incense coils on mosquito (GB13917.4-92, airtight cask); format: in vivo; settings: for relative efficacy compared with dimefluthrin: incense coil 0.04 w/w %, from KT50 of table 1; for KT50: pesticide incense coil, 0.04 w/w % active ingredient, ignited and removed after 1 min, 20 female mosquitoes
Procedure: To a mixture of corn starch, carbon powder and wood flour (1:5:4, 99.96 parts by weight) was added water (120 parts by weight) and the resulting mixture was kneaded, and then dried to give a pesticide incense coil substrate (diameter: 12.0 cm; thickness: 4 mm; one pair of substrates' weight: 40 g).
On the other hand, a 0.4 w/v % solution of compound 1 in kerosene was prepared.
The above solution (4 ml) was uniformly sprayed on the incense coil substrate with a micro-syringe, and then kept for airing at room temperature for 3 hours to get of a pesticide incense coil I containing compound 1 according to the present invention (0.04 w/w %).
Similarly, a 0.4 w/v % solution of compound 2 in kerosene was prepared and a pesticide incense coil II containing compound 2 (0.04 w/w %) was be obtained.
A 0.4 w/v % solution of compound 3 in kerosene was prepared and a pesticide incense coil III containing compound 3 (0.04 w/w %) was obtained;
A 0.4 w/v % solution of compound 4 in kerosene was prepared and a pesticide incense coil IV containing compound 4 (0.04 w/w %) was obtained;
A 0.4 w/v % solution of compound 6 in kerosene was prepared and a pesticide incense coil V containing compound 6 (0.04 w/w %) was obtained;
A 0.4 w/v % solution of dimefluthrin in kerosene was prepared and a pesticide incense coil VI containing dimefluthrin (0.04 w/w %) was obtained.
The efficacy of pesticide coils I-Vi on mosquito were tested and compared according to GB13917.4-92). In particular, the test pests are female Culex pipiens pallens (2-3 days old, fasten). Firstly, 20 test mosquitoes were captured and put into airtight cask testing device with a mosquito-sucking tube, a section of pesticide incense coil to be tested was put on shelves, then ignited and removed after 1 min.

Fly = assay: Efficacy of aerosol pesticide on fly (GB13917.2-92); format: in vivo; settings: 1 g sprayed
Procedure: (§1) Compound 1 (0.3 parts by weight) and kerosene (59.7 parts by weight) are mixed under heating to prepare a pesticide. The pesticide was placed in aerosol cans with a valve and then a mixture of propane and butane (40.0 parts by weight) was injected into tank through the valve at positive pressure to get an aerosol pesticide, which contains […] compound 1.
(§2) The efficacy of the aerosol pesticide on Mosquitoes, flies and blattella germanicas were tested according to GB13917.2-92. In particular, the test pests were placed into a tank. After all test pests restored normal activities, 1 g aerosol pesticide from aerosol cans was sprayed into the tank. Take the barrier plate away to make pests exposed to the aerosol pesticide and the number of killed pests was recorded at regular intervals, then all test pests were transferred to a clean cage after 20 mins, the number of dead pests was counted after 24 hours and the mortality of blattella germanicas at 72 h was determined.

Blattella germanica = assay: Efficacy of aerosol pesticide on blattella germanica (GB13917.2-92); format: in vivo; settings: 1 g sprayed
Procedure: as §1, §2

Mosquito [3] = assay: Efficacy of aerosol pesticide on mosquito (GB13917.2-92); format: in vivo; settings: 1 g sprayed
Procedure: as §1, §2

[4] = aerosol pesticide from compound 1 (0.3 parts by weight)
[5] = aerosol pesticide, 20 min exposure, 24 h

Row | SMILES | efficacy of isomer relative to other isomers (sanitary pests) | relative efficacy compared with dimefluthrin [2] | KT50 [2] | further results
1 | COCc1c(F)c(F)c(COC(=O)[C@@H]2[C@@H](/C=C\C(F)(F)F)C2(C)C)c(F)c1F (relative stereo) [Compound 6, 2,3,5,6-tetrafluoro-4-methoxymethylbenzyl-1R, trans-(Z)-3-(3,3,3-trifluoro-1-propenyl)-2,2-dimethyl cyclopropane carboxylate] | slightly better than the cis isomer | more than twice that of dimefluthrin | 3.1 min | mosquito invasion of a room (Mosquito [1]): None mosquito invaded
2 | COCc1c(F)c(F)c(COC(=O)[C@@H]2C(/C=C\C(F)(F)F)C2(C)C)c(F)c1F (stereo partly drawn) [Compound 1, 2,3,5,6-tetrafluoro-4-methoxymethylbenzyl-1R-(Z)-3-(3,3,3-trifluoro-1-propenyl)-2,2-dimethylcyclopropane carboxylate] | highly active isomer | more than twice that of dimefluthrin | 3.2 min | KT50 (mosquito/fly/cockroach) (Fly; [4]): 4.3 min; Mortality during 24 h (Fly; [5]): 100%; cross resistance compared to traditional pyrethroid products such as allethrin (sanitary pests; control of sanitary pests): doesn't have cross resistance; KT50 (mosquito/fly/cockroach) (Blattella germanica; [4]): 6.2 min; Mortality (72 h) (Blattella germanica; aerosol pesticide, 20 min exposure, 72 h): 90%; KT50 (mosquito/fly/cockroach) (Mosquito [3]; [4]): 4.8 min; Mortality during 24 h (Mosquito [3]; [5]): 100%
3 | COCc1c(F)c(F)c(COC(=O)[C@@H]2C(/C=C/C(F)(F)F)C2(C)C)c(F)c1F (stereo partly drawn) [Compound 2, 2,3,5,6-tetrafluoro-4-methoxymethylbenzyl-1R-(E)-3-(3,3,3-trifluoro-1-propenyl)-2,2-dimethylcyclopropane carboxylate] | – | – | 5.2 min | –
4 | COCc1c(F)c(F)c(COC(=O)[C@H]2C(/C=C\C(F)(F)F)C2(C)C)c(F)c1F (stereo partly drawn) [Compound 3, 2,3,5,6-tetrafluoro-4-methoxymethylbenzyl-1S-(Z)-3-(3,3,3-trifluoro-1-propenyl)-2,2-dimethyl cyclopropane carboxylate] | – | – | 5.1 min | –
5 | COCc1c(F)c(F)c(COC(=O)[C@H]2C(/C=C/C(F)(F)F)C2(C)C)c(F)c1F (stereo partly drawn) [Compound 4, 2,3,5,6-tetrafluoro-4-methoxymethylbenzyl-1S-(E)-3-(3,3,3-trifluoro-1-propenyl)-2,2-dimethylcyclopropane carboxylate] | – | – | 8.2 min | –
6 | COCc1c(F)c(F)c(COC(=O)C2C(C=C(C)C)C2(C)C)c(F)c1F (stereo not drawn) [Dimefluthrin, dimefluthrin, reference compound] | – | – | 7.6 min | –
